Where two headings read alike, the source gives them in different places.
Columns and labels:
hP2Y12 = hP2Y12 (Homo sapiens, UniProt Q9H244); experiment: Inhibition of [3H]PSB-0413 binding at hP2Y12; details: mean ± SEM, read-out: hP2Y12 % Inhibition of [^3H]PSB-0413 Binding at 10 μM, n = 3
Protocol: In table 2 inhibition data of selected examples at human P2Y receptor subtypes were collected. It can be seen that no compound was identified that inhibited P2Y receptors at high concentrations of 100 μM and 10 μM, respectively.

human NTPDase3 = target: T1, human NTPDase3 (Homo sapiens, UniProt O75355); experiment: NTPDase inhibition assay by capillary electrophoresis (CE), NTPDase3; assay type: biochemical; details: ATP 320 μM; for inhibition at 1000 µM: 1 mM compound; for Ki: CE method, Km 75 μM, read-out: NTPDase3 Ki [μM] ± SEM
T1 sequence (O75355 1-529): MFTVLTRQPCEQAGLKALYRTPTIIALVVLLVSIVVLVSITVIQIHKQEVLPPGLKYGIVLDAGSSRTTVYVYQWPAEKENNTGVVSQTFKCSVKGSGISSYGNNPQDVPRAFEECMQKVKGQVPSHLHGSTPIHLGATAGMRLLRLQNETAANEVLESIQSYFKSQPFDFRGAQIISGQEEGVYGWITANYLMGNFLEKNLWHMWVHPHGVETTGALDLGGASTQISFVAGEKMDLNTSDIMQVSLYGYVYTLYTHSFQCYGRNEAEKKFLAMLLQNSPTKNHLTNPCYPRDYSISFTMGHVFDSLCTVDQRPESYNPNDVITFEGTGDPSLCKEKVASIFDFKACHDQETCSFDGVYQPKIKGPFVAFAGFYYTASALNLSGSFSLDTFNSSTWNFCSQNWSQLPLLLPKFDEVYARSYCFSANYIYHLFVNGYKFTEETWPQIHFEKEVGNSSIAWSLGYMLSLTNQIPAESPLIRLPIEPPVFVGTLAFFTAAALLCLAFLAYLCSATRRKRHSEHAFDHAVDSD
Protocol: (§1) The applied enzyme inhibition assay has been described (Iqbal J, Vollmayer P, Braun N, Zimmermann H, Müller C E. A capillary electrophoresis method for the characterization of ecto-nucleoside triphosphate diphosphohydrolases (NTPDases) and the analysis of inhibitors by in-capillary enzymatic microreaction. Purinergic Signalling 2005, 1, 349-358).
(§2) A. CE instrumentation: All experiments were carried out using a P/ACE MDQ capillary electrophoresis system (Beckman Instruments, Fullerton, Calif., USA) equipped with a UV detection system coupled with a diode-array detector (DAD). Data collection and peak area analysis were performed by the P/ACE MDQ software 32 KARAT obtained from Beckman Coulter. The capillary temperature was kept constant at 25° C. The temperature of the sample storing unit was also adjusted to 25° C. The electrophoretic separations were carried out using an eCAP polyacrylamide-coated fused-silica capillary [(30 cm (20 cm effective length)×50 μm internal diameter (I.D.)×360 μm outside diameter (O.D.), obtained from CS-Chromatographie (Langerwehe, Germany)]. The separation was performed using an applied current of −60 μA and a data acquisition rate of 8 Hz. Analytes were detected using direct UV absorbance at 210 nm. The capillary was conditioned by rinsing with water for 2 min and subsequently with buffer (phosphate 50 mM, pH 6.5) for 1 min. Sample injections were made at the cathodic side of the capillary.
(§3) B. NTPDase inhibition assay by capillary electrophoresis: Enzyme inhibition assays were carried out at 37° C. in a final volume of 100 μl. The reaction mixture contained 320 μM of ATP (substrate) in reaction buffer. The reaction buffer contained 140 mM NaCl, 5 mM KCl, 1 mM MgCl2, 2 mM CaCl2, and 10 mM Hepes, pH 7.4.
(§4) Different concentrations of inhibitors dissolved in DMSO or water (10 μl) were added and the reaction was initiated by the addition of 10 μl of the appropriately diluted recombinant or native human or rat NTPDase enzyme. […] The mixture (final volume 100 μl) was incubated for 15 min and terminated by heating at 99° C. for 4 min. Aliquots of the reaction mixture (50 μl) were then transferred to mini-CE vials and injected into the CE instrument under the conditions described above. 20 μM of UMP was used as internal standard. Inhibition of NTPDase was tested over a range of 6 to 8 concentrations of test compound spanning 3 orders of magnitude to determine K1 values. Each analysis was repeated two times (in triplicates) in two separate experiments. The Cheng-Prusoff equation was used to calculate the K1 values from the IC50 values, determined by the non-linear curve fitting program PRISM® 3.0 (GraphPad, San Diego, Calif., USA). In table 1K, values of selected compounds as inhibitors of human NTPDases are given.

human NTPDase2 = target: T2, human NTPDase2 (Homo sapiens, UniProt Q9Y5L3); experiment: NTPDase inhibition assay by capillary electrophoresis (CE), NTPDase2; assay type: biochemical; details: human NTPDase2; CE method; ATP 320 μM; Km 70 μM; read-out: NTPDase2 Ki [μM] ± SEM
T2 sequence (Q9Y5L3 1-495): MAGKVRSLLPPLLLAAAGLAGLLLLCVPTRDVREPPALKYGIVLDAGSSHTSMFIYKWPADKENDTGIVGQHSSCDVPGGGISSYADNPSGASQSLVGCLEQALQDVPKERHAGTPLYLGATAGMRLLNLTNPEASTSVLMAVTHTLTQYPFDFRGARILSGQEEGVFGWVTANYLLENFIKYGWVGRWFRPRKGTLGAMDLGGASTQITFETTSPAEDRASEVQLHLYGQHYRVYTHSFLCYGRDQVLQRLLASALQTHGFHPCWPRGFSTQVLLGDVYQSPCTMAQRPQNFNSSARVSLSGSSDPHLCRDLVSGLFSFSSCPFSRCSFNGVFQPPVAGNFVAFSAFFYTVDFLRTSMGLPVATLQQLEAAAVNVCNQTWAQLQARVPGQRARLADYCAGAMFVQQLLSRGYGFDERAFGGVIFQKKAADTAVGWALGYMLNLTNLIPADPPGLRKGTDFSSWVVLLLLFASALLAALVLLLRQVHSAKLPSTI

human NTPDase8 = target: T3, human NTPDase8 (Homo sapiens, UniProt Q5MY95); experiment: NTPDase inhibition assay by capillary electrophoresis (CE), NTPDase8; assay type: biochemical; details: for Ki: read-out: NTPDase8 Ki [μM] ± SEM; for inhibition at 1000 µM: 1 mM compound
T3 sequence (Q5MY95 1-495): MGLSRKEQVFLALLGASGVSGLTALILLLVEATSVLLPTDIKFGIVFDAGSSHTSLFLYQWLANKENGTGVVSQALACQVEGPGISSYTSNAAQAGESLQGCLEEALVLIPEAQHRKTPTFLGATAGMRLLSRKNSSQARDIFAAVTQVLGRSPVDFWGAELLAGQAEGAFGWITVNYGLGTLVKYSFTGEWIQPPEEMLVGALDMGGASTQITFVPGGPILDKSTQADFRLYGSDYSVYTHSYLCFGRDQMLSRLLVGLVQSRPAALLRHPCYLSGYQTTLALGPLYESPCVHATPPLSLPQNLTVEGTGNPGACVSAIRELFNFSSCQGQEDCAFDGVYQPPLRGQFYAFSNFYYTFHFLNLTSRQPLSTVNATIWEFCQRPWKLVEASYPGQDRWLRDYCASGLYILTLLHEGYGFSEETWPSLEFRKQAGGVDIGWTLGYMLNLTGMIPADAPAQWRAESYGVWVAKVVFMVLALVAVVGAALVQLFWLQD
Protocol: as §1, §2, §3, §4

human NTPDase1 = target: T4, human NTPDase1 (Homo sapiens, UniProt P49961); experiment: NTPDase inhibition assay by capillary electrophoresis (CE), NTPDase1; assay type: biochemical; details: ATP 320 μM; for Ki: CE method, Km 17 μM, read-out: NTPDase1 Ki [μM] ± SEM; for inhibition at 1000 µM: 1 mM compound
T4 sequence (P49961 1-510): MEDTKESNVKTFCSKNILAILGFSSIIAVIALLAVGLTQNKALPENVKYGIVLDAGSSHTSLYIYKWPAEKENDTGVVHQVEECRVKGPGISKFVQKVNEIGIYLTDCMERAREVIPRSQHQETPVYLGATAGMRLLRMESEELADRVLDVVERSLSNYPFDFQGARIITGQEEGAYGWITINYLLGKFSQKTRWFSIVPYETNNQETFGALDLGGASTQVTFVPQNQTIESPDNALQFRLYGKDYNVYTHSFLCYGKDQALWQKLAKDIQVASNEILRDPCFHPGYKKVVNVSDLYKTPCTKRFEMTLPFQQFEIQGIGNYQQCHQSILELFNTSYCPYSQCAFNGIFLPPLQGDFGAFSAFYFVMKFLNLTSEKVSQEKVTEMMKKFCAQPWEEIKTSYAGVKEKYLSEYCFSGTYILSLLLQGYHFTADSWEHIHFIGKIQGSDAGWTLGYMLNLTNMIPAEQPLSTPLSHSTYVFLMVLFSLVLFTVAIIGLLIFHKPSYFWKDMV
Protocol: as §1, §2, §3, §4

rP2Y6 = rP2Y6 (Rattus norvegicus, UniProt Q63371); experiment: Inhibition of UDP binding at rP2Y6; details: read-out: rP2Y6 % inhibition of UDP binding at 100 μM, n = 3, mean ± SEM
Chain of rP2Y6 (Q63371 whole entry): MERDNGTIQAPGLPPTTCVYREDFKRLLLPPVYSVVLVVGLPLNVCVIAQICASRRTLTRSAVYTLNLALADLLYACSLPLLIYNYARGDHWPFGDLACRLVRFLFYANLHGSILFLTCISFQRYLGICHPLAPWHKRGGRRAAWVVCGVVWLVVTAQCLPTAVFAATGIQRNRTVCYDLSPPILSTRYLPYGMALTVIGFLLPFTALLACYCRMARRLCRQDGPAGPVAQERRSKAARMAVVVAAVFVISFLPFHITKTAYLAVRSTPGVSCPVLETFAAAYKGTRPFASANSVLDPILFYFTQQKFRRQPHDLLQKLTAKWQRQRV

Chain of hP2Y12 (Q9H244 whole entry): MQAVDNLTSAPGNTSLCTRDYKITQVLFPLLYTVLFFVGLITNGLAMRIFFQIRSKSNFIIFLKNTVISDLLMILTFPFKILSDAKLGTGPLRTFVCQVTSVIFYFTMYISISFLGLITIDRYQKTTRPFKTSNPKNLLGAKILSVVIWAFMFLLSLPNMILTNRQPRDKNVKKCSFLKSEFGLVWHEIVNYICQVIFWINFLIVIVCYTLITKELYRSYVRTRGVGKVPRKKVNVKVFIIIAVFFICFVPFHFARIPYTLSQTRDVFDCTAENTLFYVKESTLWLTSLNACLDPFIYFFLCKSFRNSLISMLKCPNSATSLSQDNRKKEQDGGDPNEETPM

| SMILES | inhibition at 10 µM (hP2Y12) [%] | inhibition at 1000 µM (human NTPDase3) [%] | Ki (human NTPDase3) [µM] | Ki (human NTPDase2) [µM] | Ki (human NTPDase8; human NTPDase8, CE method, ATP 320 μM, Km 46 μM) [µM] | Ki (human NTPDase1) [µM] | inhibition at 100 µM (rP2Y6) [%] | inhibition at 1000 µM (human NTPDase8; human NTPDase8, ATP 320 μM) [%] | Ki (human NTPDase8) [µM] | inhibition at 1000 µM (human NTPDase1) [%] |
| --- | --- | --- | --- | --- | --- | --- | --- | --- | --- | --- |
| CCOP(=O)(Cc1ccc(NC(=O)CCCNC(=O)[C@H]2O[C@@H](n3ccc(=O)[nH]c3=O)C(O)C2O)cc1)OCC (stereo in doubt) [Compound 4, 4-[4-((2S,3R,4S,5R)-5-(2,4-Dioxo-3,4-dihydropyrimidin-1(2H)-yl)-3,4-dihydroxy-tetrahydrofurane-2-carboxamido)butaneamido]benzylphosphonic acid diethylester] | 6 ± 4 | 48 | > 200 | 210 ± 25.3 | 242 ± 39.3 | 182 ± 24.3 | -8 ± 11 |  |  |  |
| CCOP(=O)(CNC(=O)CNC(=O)[C@H]1O[C@@H](n2ccc(=O)[nH]c2=O)C(O)C1O)OCC (stereo in doubt) [Compound 5, 2-[(2S,3R,4S,5R)-5-(2,4-Dioxo-3,4-dihydropyrimidin-1(2H)-yl)-3,4-dihydroxy-tetrahydrofurane-2-carboxamido]ethaneamidomethylphosphonic acid diethylester] | 31 ± 1 | 0 | > 200 | 71.7 ± 13.5 |  | 786 ± 33 | 17 ± 16 | 0 | > 100 |  |
| CCOP(=O)(CNC(=O)CCCNC(=O)[C@H]1O[C@@H](n2ccc(=O)[nH]c2=O)C(O)C1O)OCC (stereo in doubt) [Compound 7, 4-[(2S,3R,4S,5R)-5-(2,4-Dioxo-3,4-dihydropyrimidin-1(2H)-yl)-3,4-dihydroxy-tetrahydrofurane-2-carboxamido]butaneamidomethylphosphonic acid diethylester] | 2 ± 8 | 0 | > 200 | 29.2 ± 2.7 |  | > 50 | -3 ± 11 | 0 | > 100 | 45 |
| CCOP(=O)(CCNC(=O)CNC(=O)[C@H]1O[C@@H](n2ccc(=O)[nH]c2=O)C(O)C1O)OCC (stereo in doubt) [Compound 8, 2-[2-((2S,3R,4S,5R)-5-(2,4-Dioxo-3,4-dihydropyrimidin-1(2H)-yl)-3,4-dihydroxy-tetrahydrofurane-2-carboxamido)ethaneamido]ethylphosphonic acid diethylester] | 2 ± 3 | 22 | > 200 | 116 ± 24 |  | > 50 | 9 ± 13 | 0 | > 100 | 0 |
| CCOP(=O)(CNC(=O)CCNC(=O)[C@H]1O[C@@H](n2ccc(=O)[nH]c2=O)[C@H](O)[C@@H]1O)OCC [Compound 6, 3-[(2S,3R,4S,5R)-5-(2,4-Dioxo-3,4-dihydropyrimidin-1(2H)-yl)-3,4-dihydroxy-tetrahydrofurane-2-carboxamido]pronaneamidomethylphosphonic acid diethylester] | 7 ± 5 | 0 | > 200 | 167 ± 21 |  | > 50 | -3 ± 2 | 0 | > 100 | 0 |
